Where only a bound is given, the exact number is not on record here.

One assay addresses S1P3 (Homo sapiens (Human), UniProt Q99500). The experiment in a line: 35S-GTPγS binding assay, S1P3 membranes. The note with it: membranes from CHO cells expressing S1P3; read-out: S1P3 GTPyS EC50. The format is biochemical. The protocol: (§1) Membranes were prepared from CHO cells expressing S1P1 or S1P3 for use in ligand and […] binding studies. Cells were suspended in 50 mM TRIS, pH 7.4, 2 mM EDTA, 250 mM Sucrose (buffer A) and 1× Complete protease inhibitor cocktail (Roche), and disrupted at 4° C. by nitrogen decompression using a cell disruption bomb (Parr Instrument). Following centrifugation at 1000 RPM for 10 min at 4° C., the supernatant was suspended in buffer A and centrifuged again at 19000 RPM for 60 min at 4° C. The pellet was then suspended in 10 mM HEPES, pH 7.4, 1 mM EDTA, 250 mM Sucrose (Buffer B), and 1× Complete EDTA-free protease inhibitor cocktail and homogenized using a potter. Membranes were flash frozen in liquid nitrogen and stored at −80° C. [33P]sphingosine 1-phosphate (3000 Ci/mmol; American Radiolabeled Chemicals, Inc.) was added to test compounds in DMSO. Membranes and WGA SPA beads (GE Healthcare) were added to give a final volume of 100 μl in 96-well plates with assay concentrations of 25 μM or 10 μM [33P]sphingosine 1-phosphate (respectively for S1P1 or S1P3), 50 mM HEPES, pH 7.5, 5 mM MgCl2, 100 mM NaCl, 0.4% fatty acid-free BSA, 1-5 μg/well of proteins and 100 μg/well of WGA SPA beads. Binding was performed for 60 min at room temperature on a shaker and bound radioactivity was measured on a PerkinElmer 1450 MicroBeta counter. Specific binding was calculated by subtracting remaining radioactivity in the presence of 1000-fold excess of unlabeled S1P. Binding data were analyzed using the GraphPad Prism program.
Measurements of ^35S-GTPγS Binding: Membranes (1 to 10 μg protein) prepared as described above, were incubated in 96-well Scintiplates (PerkinElmer) with test compounds diluted in DMSO, in 180 μl of 20 mM HEPES, pH 7.4, 10 mM MgCl2, 2 μg/well Saponin, 0.2% fatty acid free BSA (Assay buffer), 140 mM NaCl and 1.7 μM GDP. The assay was initiated with the addition of 20 μl of 1.5 nM [35S]-GTPγS (1100 Ci/mmol; GE Healthcare) in assay buffer. After 60 min incubation at 30° C. on a shaker, plates were centrifuged for 10 min at 2000 RPM. Supernatant was discarded and membrane bound radioactivity was measured on a PerkinElmer 1450 MicroBeta counter. Triplicate samples were averaged and expressed as % response relative to SIP activation in absence of compound (n=2).
Background: GTPγS resists hydrolysis and so accumulates on activated G proteins.

For a further assay, the target named is S1P1 (Homo sapiens (Human), UniProt P21453). Kind of assay: 35S-GTPγS binding assay, S1P1 membranes. The format is biochemical. The note with it: membranes from CHO cells expressing S1P1; read-out: S1P1 GTPyS EC50. The procedure: as §1, with “Membranes and WGA SPA beads (GE Healthcare) were added to give a final volume of 100 μl in 96-well plates with assay concentrations of 25 μM or 10 μM [33P]sphingosine 1-phosphate (respectively for S1P1 or S1P3), 50 mM HEPES, pH 7.5, 5 mM MgCl2, 100 mM NaCl, 0.4% fatty acid-free BSA, 1-5 μg/well of proteins and 100 μg/well of WGA SPA beads.” left out
The assay was initiated with the addition of 20 μl of 1.5 nM [35S]-GTPγS (1100 Ci/mmol; GE Healthcare) in assay buffer. After 60 min incubation at 30° C. on a shaker, plates were centrifuged for 10 min at 2000 RPM. Supernatant was discarded and membrane bound radioactivity was measured on a PerkinElmer 1450 MicroBeta counter. Triplicate samples were averaged and expressed as % response relative to SIP activation in absence of compound (n=2).

Sequence of S1P3 (Q99500 whole entry, species assumed): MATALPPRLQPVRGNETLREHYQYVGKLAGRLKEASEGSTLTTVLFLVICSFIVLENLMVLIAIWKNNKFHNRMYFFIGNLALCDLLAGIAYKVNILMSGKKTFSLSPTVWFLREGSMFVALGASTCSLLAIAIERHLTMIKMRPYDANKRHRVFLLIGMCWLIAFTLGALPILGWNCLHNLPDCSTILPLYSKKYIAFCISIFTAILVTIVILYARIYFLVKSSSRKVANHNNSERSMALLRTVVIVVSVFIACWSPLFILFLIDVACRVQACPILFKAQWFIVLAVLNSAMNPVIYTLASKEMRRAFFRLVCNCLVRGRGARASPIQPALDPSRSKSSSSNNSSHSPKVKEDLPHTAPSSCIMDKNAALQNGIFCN
Sequence of S1P1 (P21453 whole entry, species assumed): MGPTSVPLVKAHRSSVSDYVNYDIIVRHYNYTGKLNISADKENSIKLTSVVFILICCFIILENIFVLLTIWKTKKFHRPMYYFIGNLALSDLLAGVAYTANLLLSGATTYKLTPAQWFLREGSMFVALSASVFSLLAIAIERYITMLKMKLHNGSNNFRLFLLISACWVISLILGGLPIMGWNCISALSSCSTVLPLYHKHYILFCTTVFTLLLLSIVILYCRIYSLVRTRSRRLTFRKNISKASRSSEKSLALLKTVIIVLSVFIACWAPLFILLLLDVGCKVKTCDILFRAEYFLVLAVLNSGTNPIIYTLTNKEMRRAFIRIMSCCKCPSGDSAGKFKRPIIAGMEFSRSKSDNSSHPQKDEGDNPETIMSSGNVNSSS

In the case of `Cc1cc(O)ccc1NC(=O)c1cc(NC2CCCCC2)ncn1` [Example 1-1], the EC50 on S1P3 is greater than 30 µM.

On to `O=C(Nc1ccc(O)c2ccccc12)c1cc(NC2CCCCC2)ncn1` [Example 1-5], for which the EC50 on S1P3 is greater than 30 µM. For `O=C(Nc1ccc(O)cc1F)c1cc(NC2CCCCC2)ncn1` [Example 1-7], the EC50 at S1P3 was greater than 30 µM. On to `O=C(Nc1ccc(O)cc1Cl)c1cc(NC2CCCCC2)ncn1` [Example 1-8], for which the EC50 on S1P3 is greater than 30 µM. As for `CS(=O)(=O)Nc1ccc(NC(=O)c2cc(NC3CCCCC3)ncn2)cc1` [Example 1-13], the half-maximal effective concentration (EC50) on S1P3 is greater than 30 µM.

On to `O=C(Nc1ccc(O)cc1C(F)(F)F)c1cc(NC2CCCCC2)ncn1` [Example 1-15], for which the half-maximal effective concentration (EC50) is 0.38 µM on S1P1 and greater than 30 µM at S1P3. Turning to `O=C(Nc1ccnc2ccccc12)c1cc(NC2CCCCC2)ncn1` [Example 1-16], the EC50 on S1P1 is 1.07 µM; on S1P3, 5.23 µM. On to `Cc1cc(S(N)(=O)=O)ccc1NC(=O)c1cc(NC2CCCCC2)ncn1` [Example 1-18], for which the figures for the EC50 at S1P1 and on S1P3 were 0.44 µM and greater than 30 µM, respectively.

For the molecule `CN(c1cc(C(=O)Nc2ccc(O)cc2)ncn1)C1CCCCC1` [Example 1-19], the EC50 at S1P3 is greater than 30 µM. With `CCCN(CCC)c1cc(C(=O)Nc2ccc(O)cc2)ncn1` [Example 1-22], the EC50 at S1P1 was found to be 0.37 µM; at S1P3, 2.32 µM.

`CCN(c1cc(C(=O)Nc2ccc(O)cc2C)ncn1)C1CCCCC1` [Example 1-25]: the EC50 was 0.4 µM at S1P1 and greater than 30 µM on S1P3.

As for `O=C(Nc1ccc(O)cc1)c1cc(OC2CCCCC2)ncn1` [Example 1-26], the results for the EC50 on S1P1 and at S1P3 were 0.24 µM and greater than 30 µM, respectively. As for `O=C(Nc1ccc2[nH]ncc2c1)c1cc(NC2CCCCC2)ncn1` [Example 1-28], the EC50 at S1P3 was greater than 30 µM.

Regarding `Cc1cc(S(N)(=O)=O)ccc1NC(=O)c1cc(N(C)C2CCCCC2)ncn1` [Example 1-29], the EC50 on S1P1 is 0.065 µM; on S1P3, greater than 30 µM.

For the molecule `Cc1cc(O)ccc1NC(=O)c1cc(N(CC2CC2)C2CCCCC2)ncn1` [Example 1-33], the concentration for a half-maximal effect (EC50) on S1P1 was 0.0246 µM; on S1P3, 100 µM. `Cc1cc(O)ccc1NC(=O)c1cc(OC2CCCCC2)ncn1` [Example 1-34]: the concentration for a half-maximal effect (EC50) is 0.132 µM on S1P1 and greater than 20 µM at S1P3.

In the case of `CN(c1cc(C(=O)Nc2ccc3[nH]ncc3c2)ncn1)C1CCCCC1` [Example 1-35], the EC50 at S1P1 is 0.418 µM; at S1P3 it was greater than 20 µM. For the molecule `CCC(C)Oc1cc(C(=O)Nc2ccc(O)cc2C)ncn1` (centres unmarked) [Example 1-36], the half-maximal effective concentration (EC50) is 2.92 µM at S1P1 and greater than 20 µM on S1P3. For `Cc1cc(S(N)(=O)=O)ccc1NC(=O)c1cc(N(CC2CC2)C2CCCCC2)ncn1` [Example 1-38], the EC50 on S1P1 was found to be 0.002 µM; at S1P3 it was 47.5 µM. As to `Cc1cc2[nH]ncc2cc1NC(=O)c1cc(N(C)C2CCCCC2)ncn1` [Example 1-39], the EC50 worked out at 0.211 µM at S1P1 and 2.33 µM at S1P3.

Turning to `CN(c1cc(C(=O)Nc2ccc(S(=O)(=O)NCC(O)CO)cc2)ncn1)C1CCCCC1` (centres unmarked) [Example 1-40], the EC50 on S1P1 is 1.52 µM; on S1P3 it was greater than 20 µM. For the molecule `CN(c1cc(C(=O)Nc2ccc3c(c2)CC(=O)N3)ncn1)C1CCCCC1` [Example 1-41], the EC50 at S1P1 came to 1.78 µM; at S1P3 it was 32 µM.

As to `O=C(Nc1ccc(CCO)cc1)c1cc(NC2CCCCC2)ncn1` [Example 1-52], the EC50 on S1P3 is greater than 30 µM. On to `O=C(Nc1ccc(O)cc1)c1cc(NC2CCCCC2)ncn1` [Example 1-53], for which the EC50 on S1P3 was greater than 30 µM. On to `CCCN(CC1CC1)c1cc(C(=O)Nc2ccc(S(N)(=O)=O)cc2C)ncn1` [Example 1-56], for which, on S1P3, the EC50 is greater than 20 µM.

For the molecule `Cc1cc(S(=O)(=O)NCCC(=O)O)ccc1NC(=O)c1cc(N(CC2CC2)C2CCCCC2)ncn1` [Example 1-62], the EC50 at S1P3 is 0.062 µM. Still for that read-out and setting: the value for `Cc1cc(S(=O)(=O)NCCCC(=O)O)ccc1NC(=O)c1cc(N(CC2CC2)C2CCCCC2)ncn1` [Example 1-63] was 1.31 µM; that for `CC(C)CN(c1cc(C(=O)Nc2ccc3[nH]ncc3c2)ncn1)C1CCCC1` [Example 1-69] was 0.666 µM. Turning to `O=C(Nc1ccc(CN2CC(C(=O)O)C2)cc1)c1cc(N(CC2CC2)C2CCCCC2)ncn1` [Example 1-84], the EC50 on S1P3 came out at 0.236 µM. In the case of `CCCN(CC1CC1)c1cc(C(=O)Nc2ccc(CO)cc2C)ncn1` [Example 1-85], the EC50 on S1P3 was greater than 20 µM. Still for that read-out and setting: in the case of `CCCN(CC1CC1)c1cc(C(=O)Nc2ccc(S(=O)(=O)NCCC(=O)O)cc2C)ncn1` [Example 1-99] it was 5.65 µM; in that of `CCCN(CC1CC1)c1cc(C(=O)Nc2ccc(CNCC(=O)O)cc2C)ncn1` [Example 1-100], greater than 20 µM.

For the molecule `CCCN(CC1CC1)c1cc(C(=O)Nc2cccc3[nH]ccc23)ncn1` [Example 1-113], the EC50 on S1P3 was greater than 20 µM. Regarding `O=C(Nc1ccc(Cn2cncn2)cc1)c1cc(N(CC2CC2)C2CCCCC2)ncn1` [Example 1-137], at S1P1, the EC50 amounted to 0.346 µM.

Consider `CCCN(CC1CC1)c1cc(C(=O)Nc2ccc(CN3CCC(C(=O)O)CC3)cc2C)ncn1` [Example 1-138], for which the 50% effective concentration (EC50) at S1P1 turned out to be 0.443 µM. Consider `CCCN(CC1CC1)c1cc(C(=O)Nc2ccc(CN3CCC[C@@H]3COC)cc2C)ncn1` [Example 1-139], for which the EC50 on S1P1 turned out to be 2.48 µM. Take `CCCN(CC1CC1)c1cc(C(=O)Nc2ccc(CN3CCC(O)CC3)cc2C)ncn1` [Example 1-140]: the half-maximal effective concentration (EC50) at S1P1 amounted to 1.41 µM. On the same count and under the same terms, the value for `CCCN(CC1CC1)c1cc(C(=O)Nc2ccc(CN3CCCC(CO)C3)cc2C)ncn1` (centres unmarked) [Example 1-141] was 2.29 µM; that for `CCCN(CC1CC1)c1cc(C(=O)Nc2ccc(CN3CCC(O)C3)cc2C)ncn1` (centres unmarked) [Example 1-142] was 0.465 µM. For the molecule `CCCN(CC1CC1)c1cc(C(=O)Nc2cccc(-n3cncn3)c2)ncn1` [Example 1-143], the half-maximal effective concentration (EC50) at S1P1 was 0.079 µM. `CCCN(CC1CC1)c1cc(C(=O)Nc2cccc(-n3ccnc3C)c2)ncn1` [Example 1-144]: at S1P1, the EC50 was 1.54 µM. As for `CCCN(CC1CC1)c1cc(C(=O)Nc2ccc(Cn3cncn3)cc2)ncn1` [Example 1-145], the EC50 at S1P1 was 0.055 µM. Still for that read-out and setting: in the case of `CCCN(CC1CC1)c1cc(C(=O)Nc2ccc(-n3cncn3)cc2)ncn1` [Example 1-146] it was 0.279 µM; in that of `CCCN(CC1CC1)c1cc(C(=O)Nc2cccc(-n3ccnc3)c2)ncn1` [Example 1-147], 0.038 µM. For `CCCN(CC1CC1)c1cc(C(=O)Nc2cccc(Cn3cccn3)c2)ncn1` [Example 1-148], the EC50 on S1P1 amounted to 1.05 µM. With `CCCN(CC1CC1)c1cc(C(=O)Nc2ccc(CC3COC(=O)N3)cc2)ncn1` (centres unmarked) [Example 1-150], the EC50 on S1P1 was found to be 0.268 µM. For the molecule `CCCN(CC1CC1)c1cc(C(=O)Nc2ccc(N3CCOCC3)c(F)c2)ncn1` [Example 1-151], the half-maximal effective concentration (EC50) at S1P1 stood at 0.604 µM. As to `CCCN(CC1CC1)c1cc(C(=O)Nc2cccc(Cn3cncn3)c2)ncn1` [Example 1-152], at S1P1, the EC50 was 1.12 µM. Turning to `CCCN(CC1CC1)c1cc(C(=O)Nc2cccc(Cn3ccnc3)c2)ncn1` [Example 1-153], at S1P1, the EC50 turned out to be 0.481 µM. As to `CCCN(CC1CC1)c1cc(C(=O)Nc2ccc(CN3CCC3)cc2C)ncn1` [Example 1-154], at S1P1, the EC50 came out at 0.807 µM.

Broadly, the EC50 is the concentration needed to bring the measured effect to its halfway point.

For the origin of these results see patent US9150519B2, “6-amino-pyrimidine-4-carboxamide derivatives and related compounds which bind to the sphingosine 1-phosphate (S1P) receptor for the treatment of multiple sclerosis” (MERCK SERONO SA, priority 2007, dated 2015).
